# According to patent US20260274829A1, “NEW E3 UBIQUITIN LIGASE LIGAND, PROTEIN DEGRADATION AGENT AND USE THEREOF” (GLUETACS THERAPEUTICS (SHANGHAI) CO., LTD., priority 2023, published 2026):
# Biological target: T1, human Cereblon WT GST-tagged protein (Homo sapiens, UniProt Q96SW2)
# T1 construct: purchased CISBIO 64BDCRBNPEH
# Assay: CRBN binding, HTRF CEREBLON BINDING kit
# Conditions: CRBN binding, HTRF CEREBLON BINDING kit
# How it was run: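 HTRF competition in which test compounds displace a Thalidomide-Re tracer from GST-tagged human Cereblon WT, detected with a GST Eu antibody. Incubation lasted 3 hours at room temperature, with emission read at 620 and 665 nm. Inhibition rate was derived from 665/620 ratios relative to blank and solvent control wells.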
# T1 sequence (Q96SW2 whole entry): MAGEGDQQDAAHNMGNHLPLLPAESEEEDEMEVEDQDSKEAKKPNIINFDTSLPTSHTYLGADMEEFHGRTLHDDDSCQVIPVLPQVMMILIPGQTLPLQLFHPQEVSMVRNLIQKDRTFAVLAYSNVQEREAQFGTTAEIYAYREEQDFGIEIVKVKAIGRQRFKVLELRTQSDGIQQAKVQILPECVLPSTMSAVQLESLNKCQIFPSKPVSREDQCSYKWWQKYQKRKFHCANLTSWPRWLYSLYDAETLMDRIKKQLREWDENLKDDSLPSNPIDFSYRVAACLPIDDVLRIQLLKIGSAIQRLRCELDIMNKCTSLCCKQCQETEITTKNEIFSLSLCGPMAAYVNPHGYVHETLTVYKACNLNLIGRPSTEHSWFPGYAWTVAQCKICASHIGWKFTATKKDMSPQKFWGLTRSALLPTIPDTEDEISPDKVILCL
row,SMILES,IC50 [nM]
1,"CN(Cc1cccc(NC2CCC(=O)NC2=O)c1)C1CCN(c2ccc(-c3cc(F)c4c(c3)C(=O)N(C(C(=O)Nc3nccs3)c3ncn5c3CCC5)C4)cc2)CC1 (stereo not drawn) [GT-05284, 2-(6,7-dihydro-5H-pyrrolo[1,2-c]imidazol-1-yl)-2-(6-(4-(4-((3-((2,6-dioxopiperidin-3-yl)amino)benzyl)(methyl)amino)piperidin-1-yl)phenyl)-4-fluoro-1-oxoisoindolin-2-yl)-N-(thiazol-2-yl)acetamide]",< 500
2,"CC(C)(O)c1cc2nn(C3CCN(Cc4ccc(C5CCC(=O)NC5=O)cc4)CC3)cc2cc1NC(=O)c1cccc(C(F)(F)F)n1 (stereo not drawn) [GT-05753, N-(2-(1-(4-(2,6-dioxopiperidin-3-yl)benzyl)piperidin-4-yl)-6-(2-hydroxypropan-2-yl)-2H-indazol-5-yl)-6-(trifluoromethyl)picolinamide]",500 to 1000
3,"CC(C)(O)c1cc2nn(C3CCN(Cc4ccc(N5CCC(=O)NC5=O)cc4)CC3)cc2cc1NC(=O)c1cccc(C(F)(F)F)n1 [GT-05754, N-(2-(1-(4-(2,4-dioxotetrahydropyrimidin-1(2H)-yl)benzyl)piperidin-4-yl)-6-(2-hydroxypropan-2-yl)-2H-indazol-5-yl)-6-(trifluoromethyl)picolinamide]",500 to 1000
4,"CC(C)(O)c1cc2nn(C3CCN(Cc4cccc(N5CCC(=O)NC5=O)c4)CC3)cc2cc1NC(=O)c1cccc(C(F)(F)F)n1 [GT-05755, N-(2-(1-(3-(2,4-dioxotetrahydropyrimidin-1(2H)-yl)benzyl)piperidin-4-yl)-6-(2-hydroxypropan-2-yl)-2H-indazol-5-yl)-6-(trifluoromethyl)picolinamide]",500 to 1000
5,"CC(C)(O)c1cc2nn(C3CCN(Cc4ccc(N5CCC(=O)NC5=O)cn4)CC3)cc2cc1NC(=O)c1cccc(C(F)(F)F)n1 [GT-05756, N-(2-(1-((5-(2,4-dioxotetrahydropyrimidin-1(2H)-yl)pyridin-2-yl)methyl)piperidin-4-yl)-6-(2-hydroxypropan-2-yl)-2H-indazol-5-yl)-6-(trifluoromethyl)picolinamide]",500 to 1000
6,"CC(C)(O)c1cc2nc(C3CCN(Cc4cccc(N5CCC(=O)NC5=O)c4)CC3)sc2cc1NC(=O)c1cccc(C(F)(F)F)n1 [GT-05765, N-(2-(1-(3-(2,4-dioxotetrahydropyrimidin-1(2H)-yl)benzyl)piperidin-4-yl)-5-(2-hydroxypropan-2-yl)benzo[d]thiazol-6-yl)-6-(trifluoromethyl)picolinamide]",500 to 1000
7,"CC(C)(O)c1cc2nc(C3CCN(Cc4ccc(N5CCC(=O)NC5=O)cc4)CC3)oc2cc1NC(=O)c1cccc(C(F)(F)F)n1 [GT-05772, N-(2-(1-(4-(2,4-dioxotetrahydropyrimidin-1(2H)-yl)benzyl)piperidin-4-yl)-5-(2-hydroxypropan-2-yl)benzo[d]oxazol-6-yl)-6-(trifluoromethyl)picolinamide]",1000 to 1900
8,"CC(C)(O)c1cc2nc(C3CCN(Cc4cccc(N5CCC(=O)NC5=O)c4)CC3)oc2cc1NC(=O)c1cccc(C(F)(F)F)n1 [GT-05773, N-(2-(1-(3-(2,4-dioxotetrahydropyrimidin-1(2H)-yl)benzyl)piperidin-4-yl)-5-(2-hydroxypropan-2-yl)benzo[d]oxazol-6-yl)-6-(trifluoromethyl)picolinamide]",500 to 1000
9,"CC(C)(O)c1cc2nc(C3CCN(Cc4ccc(N5CCC(=O)NC5=O)cn4)CC3)oc2cc1NC(=O)c1cccc(C(F)(F)F)n1 [GT-05774, N-(2-(1-((5-(2,4-dioxotetrahydropyrimidin-1(2H)-yl)pyridin-2-yl)methyl)piperidin-4-yl)-5-(2-hydroxypropan-2-yl)benzo[d]oxazol-6-yl)-6-(trifluoromethyl)picolinamide]",1000 to 1900
10,"O=C1CCN(c2ccc(CN3CCC(n4cc(NC(=O)c5cnn6ccc(N7CCOCC7)nc56)c(C(F)F)n4)CC3)cc2)C(=O)N1 [GT-05798, N-(3-(difluoromethyl)-1-(1-(4-(2,4-dioxotetrahydropyrimidin-1(2H)-yl)benzyl)piperidin-4-yl)-1H-pyrazol-4-yl)-5-morpholinopyrazolo[1,5-a]pyrimidine-3-carboxamide]",< 500
11,"O=C1CCN(c2ccc(CN3CCC(n4cc(NC(=O)c5cnn6ccc(N7CCOCC7)nc56)c(C(F)F)n4)CC3)nc2)C(=O)N1 [GT-05799, N-(3-(difluoromethyl)-1-(1-((5-(2,4-dioxotetrahydropyrimidin-1(2H)-yl)pyridin-2-yl)methyl)piperidin-4-yl)-1H-pyrazol-4-yl)-5-morpholinopyrazolo[1,5-a]pyrimidine-3-carboxamide]",< 500
12,"O=C1CCC(Nc2cccc(CN3CCC(n4cc(NC(=O)c5cnn6ccc(N7CCOCC7)nc56)c(C(F)F)n4)CC3)c2)C(=O)N1 (stereo not drawn) [GT-05801, N-(3-(difluoromethyl)-1-(1-(3-((2,6-dioxopiperidin-3-yl)amino)benzyl)piperidin-4-yl)-1H-pyrazol-4-yl)-5-morpholinopyrazolo[1,5-a]pyrimidine-3-carboxamide]",500 to 1000
13,"Cc1cc(-c2nc(C(=O)Nc3cc4oc(N5CCN(Cc6ccc(N7CCC(=O)NC7=O)cc6)CC5)nc4nc3N3CC[C@@H](O)C3)co2)ccn1 [GT-05807, (R)—N-(2-(4-(4-(2,4-dioxotetrahydropyrimidin-1(2H)-yl)benzyl)piperazin-1-yl)-5-(3-hydroxypyrrolidin-1-yl)oxazolo[4,5-b]pyridin-6-yl)-2-(2-methylpyridin-4-yl)oxazole-4-carboxamide]",500 to 1000
14,"Cc1cc(-c2nc(C(=O)Nc3cc4oc(N5CCN(Cc6cccc(N7CCC(=O)NC7=O)c6)CC5)nc4nc3N3CC[C@@H](O)C3)co2)ccn1 [GT-05808, (R)—N-(2-(4-(3-(2,4-dioxotetrahydropyrimidin-1(2H)-yl)benzyl)piperazin-1-yl)-5-(3-hydroxypyrrolidin-1-yl)oxazolo[4,5-b]pyridin-6-yl)-2-(2-methylpyridin-4-yl)oxazole-4-carboxamide]",500 to 1000
15,"O=C1CCN(c2cccc(CN3CCN(c4ccc(Nc5ncc6nc(Nc7ccccc7)n(C7CCCC7)c6n5)cc4)CC3)c2)C(=O)N1 [GT-05838, 1-(3-((4-(4-((9-cyclopentyl-8-(phenylamino)-9H-purin-2-yl)amino)phenyl)piperazin-1-yl)methyl)phenyl)dihydropyrimidine-2,4(1H,3H)-dione]",500 to 1000
16,"O=C1CCN(c2ccc(CN3CCN(c4ccc(Nc5ncc6nc(Nc7ccccc7)n(C7CCCC7)c6n5)cc4)CC3)nc2)C(=O)N1 [GT-05839, 1-(6-((4-(4-((9-cyclopentyl-8-(phenylamino)-9H-purin-2-yl)amino)phenyl)piperazin-1-yl)methyl)pyridin-3-yl)dihydropyrimidine-2,4(1H,3H)-dione]",500 to 1000
17,"O=C1CCC(Nc2cccc(CN3CCN(c4ccc(Nc5ncc6nc(Nc7ccccc7)n(C7CCCC7)c6n5)cc4)CC3)c2)C(=O)N1 (stereo not drawn) [GT-05841, 3-((3-((4-(4-((9-cyclopentyl-8-(phenylamino)-9H-purin-2-yl)amino)phenyl)piperazin-1-yl)methyl)phenyl)amino)piperidine-2,6-dione]",< 500
18,"CN(Cc1cccc(N2CCC(=O)NC2=O)c1)C1CCN(c2ccc(Nc3ncc4nc(Nc5ccccc5)n(C5CCCC5)c4n3)cc2)CC1 [GT-05870, 1-(3-(((1-(4-((9-cyclopentyl-8-(phenylamino)-9H-purin-2-yl)amino)phenyl)piperidin-4-yl)(methyl)amino)methyl)phenyl)dihydropyrimidine-2,4(1H,3H)-dione]",500 to 1000
19,"O=C1CCC(c2ccc(CN3CCN(C4CCN(c5ccc(Nc6ncc7nc(Nc8ccccc8)n(C8CCCC8)c7n6)cc5)CC4)CC3)cc2)C(=O)N1 (stereo not drawn) [GT-05915, 3-(4-((4-(1-(4-((9-cyclopentyl-8-(phenylamino)-9H-purin-2-yl)amino)phenyl)piperidin-4-yl)piperazin-1-yl)methyl)phenyl)piperidine-2,6-dione]",< 500
20,"O=C1CCN(c2ccc(CN3CCN(C4CCN(c5ccc(Nc6ncc7nc(Nc8ccccc8)n(C8CCCC8)c7n6)cc5)CC4)CC3)cc2)C(=O)N1 [GT-05917, 1-(4-((4-(1-(4-((9-cyclopentyl-8-(phenylamino)-9H-purin-2-yl)amino)phenyl)piperidin-4-yl)piperazin-1-yl)methyl)phenyl)dihydropyrimidine-2,4(1H,3H)-dione]",500 to 1000
21,"O=C1CCN(c2cccc(CN3CCN(C4CCN(c5ccc(Nc6ncc7nc(Nc8ccccc8)n(C8CCCC8)c7n6)cc5)CC4)CC3)c2)C(=O)N1 [GT-05940, 1-(3-((4-(1-(4-((9-cyclopentyl-8-(phenylamino)-9H-purin-2-yl)amino)phenyl)piperidin-4-yl)piperazin-1-yl)methyl)phenyl)dihydropyrimidine-2,4(1H,3H)-dione]",500 to 1000
22,"O=C1CCN(c2ccc(CN3CCN(C4CCN(c5ccc(Nc6ncc7nc(Nc8ccccc8)n(C8CCCC8)c7n6)cc5)CC4)CC3)nc2)C(=O)N1 [GT-05941, 1-(6-((4-(1-(4-((9-cyclopentyl-8-(phenylamino)-9H-purin-2-yl)amino)phenyl)piperidin-4-yl)piperazin-1-yl)methyl)pyridin-3-yl)dihydropyrimidine-2,4(1H,3H)-dione]",1000 to 1900
23,"O=C1CCC(Nc2cccc(CN3CCN(C4CCN(c5ccc(Nc6ncc7nc(Nc8ccccc8)n(C8CCCC8)c7n6)cc5)CC4)CC3)c2)C(=O)N1 (stereo not drawn) [GT-05943, 3-((3-((4-(1-(4-((9-cyclopentyl-8-(phenylamino)-9H-purin-2-yl)amino)phenyl)piperidin-4-yl)piperazin-1-yl)methyl)phenyl)amino)piperidine-2,6-dione]",500 to 1000
24,"COc1cc(N2CCC(N(C)Cc3ccc(N4CCC(=O)NC4=O)cn3)CC2)c(C)cc1Nc1ncc(Br)c(Nc2ccc3nccnc3c2P(C)(C)=O)n1 [GT-05952, 1-(6-(((1-(4-((5-bromo-4-((5-(dimethylphosphoryl)quinoxalin-6-yl)amino)pyrimidin-2-yl)amino)-5-methoxy-2-methylphenyl)piperidin-4-yl)(methyl)amino)methyl)pyridin-3-yl)dihydropyrimidine-2,4(1H,3H)-dione]",500 to 1000
